Laboratory results from the NIST ThermoML archive (doi:10.1016/j.tca.2018.11.018).
Numbers after ± are expanded uncertainties.

What was measured:
[1] = Molar enthalpy of transition or fusion; settings: DSC
[2] = for Triple point temperature: Crystal 2, DSC
[3] = xn = mol fraction of the nth substance listed; settings: 100 kPa, Liquid, x2 = 0; for viscosity: Falling or rolling sphere viscometry; for mass density: Vibrating tube method

| Normal melting temperature ([2]; Crystal 1, DTA) | viscosity ([3]; 298.15 K) | viscosity ([3]; 303.15 K) | viscosity ([3]; 308.15 K) | viscosity ([3]; 313.15 K) | viscosity ([3]; 318.15 K) | mass density ([3]; 318.15 K) | viscosity ([3]; 323.15 K) | mass density ([3]; 323.15 K) | viscosity ([3]; 328.15 K) | mass density ([3]; 328.15 K) | viscosity ([3]; 333.15 K) | mass density ([3]; 333.15 K) | viscosity ([3]; 338.15 K) | mass density ([3]; 338.15 K) | viscosity ([3]; 343.15 K) | mass density ([3]; 343.15 K) | viscosity ([3]; 348.15 K) | mass density ([3]; 348.15 K) | also measured | Structure (SMILES) |
| --- | --- | --- | --- | --- | --- | --- | --- | --- | --- | --- | --- | --- | --- | --- | --- | --- | --- | --- | --- | --- |
| 103.68 ± 0.7 °C |  |  |  |  |  |  |  |  |  |  |  |  |  |  |  |  |  |  | Molar enthalpy of transition or fusion ([1]; Crystal 1): 4.71 ± 0.359 kcal/mol | CCCC[n+]1ccccc1.[Br-] [1-butylpyridinium bromide] |
| 240.67 ± 0.7 °C |  |  |  |  |  |  |  |  |  |  |  |  |  |  |  |  |  |  | Molar enthalpy of transition or fusion ([1]; Crystal 2): 0.0153 kcal/mol; Triple point temperature [2]: 339.53 ± 0.93 K | CCCC[N+]1(C)CCCCC1.[Br-] [N-butyl-N-methylpiperidinium bromide] |
| 109.24 ± 0.7 °C |  |  |  |  |  |  |  |  |  |  |  |  |  |  |  |  |  |  | Molar enthalpy of transition or fusion ([1]; Crystal 1): 3.94 ± 0.335 kcal/mol | CC[N+]1(C)CCCCC1.[Br-] [N-ethyl-N-methylpiperidinium bromide] |
| 216.87 ± 0.7 °C |  |  |  |  |  |  |  |  |  |  |  |  |  |  |  |  |  |  | Molar enthalpy of transition or fusion ([1]; Crystal 2): 2.68 ± 0.382 kcal/mol; Normal melting temperature ([2]; Crystal 1, visual observation): 217.0 ± 0.5 °C; Triple point temperature [2]: 444.65 ± 0.93 K | CCCC[N+](CC)(CC)CC.[Br-] [butyltriethyl ammonium bromide] |
|  |  |  |  |  |  |  |  |  |  |  |  |  |  |  |  |  |  |  | Normal melting temperature ([2]; Crystal, visual observation): 0.1 ± 0.3 °C | O [water] |
|  | 0.89 ± 0.054 mPa·s | 0.797 ± 0.048 mPa·s | 0.719 ± 0.043 mPa·s | 0.653 ± 0.039 mPa·s | 0.596 ± 0.036 mPa·s | 990.1 ± 1 kg/m3 | 0.547 ± 0.033 mPa·s | 987.9 ± 1 kg/m3 | 0.504 ± 0.03 mPa·s | 985.6 ± 1 kg/m3 | 0.466 ± 0.028 mPa·s | 983.2 ± 1 kg/m3 | 0.433 ± 0.026 mPa·s | 980.3 ± 1 kg/m3 | 0.404 ± 0.024 mPa·s | 978.1 ± 1 kg/m3 | 0.378 ± 0.023 mPa·s | 974.8 ± 1 kg/m3 |  | O [water] + CCCC[N+]1(C)CCCCC1.[Br-] |
|  | 0.89 ± 0.054 mPa·s | 0.797 ± 0.048 mPa·s | 0.719 ± 0.043 mPa·s | 0.653 ± 0.039 mPa·s | 0.596 ± 0.036 mPa·s | 990.1 ± 1 kg/m3 | 0.547 ± 0.033 mPa·s | 987.9 ± 1 kg/m3 | 0.504 ± 0.03 mPa·s | 985.6 ± 1 kg/m3 | 0.466 ± 0.028 mPa·s | 983.2 ± 1 kg/m3 | 0.433 ± 0.026 mPa·s | 980.3 ± 1 kg/m3 | 0.404 ± 0.024 mPa·s | 978.1 ± 1 kg/m3 | 0.378 ± 0.023 mPa·s | 974.8 ± 1 kg/m3 |  | O [water] + CCCC[N+](CC)(CC)CC.[Br-] |
|  | 0.89 ± 0.054 mPa·s | 0.797 ± 0.048 mPa·s | 0.719 ± 0.043 mPa·s | 0.653 ± 0.039 mPa·s | 0.596 ± 0.036 mPa·s | 990.1 ± 1 kg/m3 | 0.547 ± 0.033 mPa·s | 987.9 ± 1 kg/m3 | 0.504 ± 0.03 mPa·s | 985.6 ± 1 kg/m3 | 0.466 ± 0.028 mPa·s | 983.2 ± 1 kg/m3 | 0.433 ± 0.026 mPa·s | 980.3 ± 1 kg/m3 | 0.404 ± 0.024 mPa·s | 978.1 ± 1 kg/m3 | 0.378 ± 0.023 mPa·s | 974.8 ± 1 kg/m3 |  | O [water] + CCCC[n+]1ccccc1.[Br-] |
|  | 0.89 ± 0.054 mPa·s | 0.797 ± 0.048 mPa·s | 0.719 ± 0.043 mPa·s | 0.653 ± 0.039 mPa·s | 0.596 ± 0.036 mPa·s | 990.1 ± 1 kg/m3 | 0.547 ± 0.033 mPa·s | 987.9 ± 1 kg/m3 | 0.504 ± 0.03 mPa·s | 985.6 ± 1 kg/m3 | 0.466 ± 0.028 mPa·s | 983.2 ± 1 kg/m3 | 0.433 ± 0.026 mPa·s | 980.3 ± 1 kg/m3 | 0.404 ± 0.024 mPa·s | 978.1 ± 1 kg/m3 | 0.378 ± 0.023 mPa·s | 974.8 ± 1 kg/m3 |  | O [water] + CC[N+]1(C)CCCCC1.[Br-] |
